Reference: patent US8835134B2, “Cycloastragenol monoglucoside, preparation, pharmaceutical composition and application thereof” (Tianjin Institute of Pharmaceutical Research, priority 2007, dated 2014)

Tested on: anesthetized open-chest dogs
Test: Hemodynamics of anesthetized open-chest dogs, intravenous infusion
Assay type: in vivo, mongrel dogs
Experimental: The animals were anesthetized by intravenous injection of 30 mg/kg sodium pentobarbital, tracheally intubated, and mechanically ventilated with positive air pressure. Left thoracotomy was performed through the fourth intercostal space and the heart was suspended in a pericardial cradle, the aortic root was isolated and a probe of blood flow meter (12 or 14 mm in diameter) was fixed to measure the aortic blood flow as a representation of cardiac output (CO), the circumflex branch of left coronary artery was isolated and a probe of blood flow meter (2 or 2.5 mm in diameter) was fixed to measure the coronary blood flow (CBF). A polyethylene catheter filled with heparin physiological saline was inserted through cardiac apex into the left ventricle to measure the left ventricular pressure (LVP) and left ventricular end-diastolic pressure (LVEDP), Peak positive and peak negative first derivatives of the LVP (+ LVdp/dt and − LVdp/dt) were calculated with the Acknowledge software. The systolic blood pressure (SBP), diastolic blood pressure (DBP) and mean arterial pressure (MAP) were measured by polyethylene catheter via the femoral artery, ECG □ was measured by a AC-601G ECG amplifier. The above-mentioned analog signal was input into a data acquisition workstation (MP100, BIOPAC Systems, USA) to a computer running Acknowledge (version 3.7.1).
After surgery, various indexes before administration were recorded until the indexes were stable, and then intravenous infusion administration was conducted. Thirty dogs were divided into five groups (six dogs in each group), the experiment groups were given 0.15, 0.3, 0.6 mg/kg of ASP-[…] respectively, the normal control group was given 1 ml/kg of solvent, and the positive control group was given 0.3 mg/kg of astragaloside IV. The delivery volumes were 15 ml for each dog was and the delivery velocity was 1 ml/min. The indexes were recorded at 5, 10, 15, 20, 30, 45, 60, 90 and 120 mins after drug administration. At the end of experiment, the hearts were excised and weighted. The myocardial blood flow for per hectogram (CF), coronary resistance (CR), cardiac index (CI), left ventricular work (LVW) and total peripheral resistance (TPR) were calculated according to the following formulae: CF=CBF×[…]/heart weight CR=MAP/CF CI=CO/0.11×(body weight)^2/3 LVW=CO×(MAP−5)×1.052×0.0136 TPR=MAP×79.92/CO
Data are expressed as mean±SD ( x±s), the paired t-test was used to compare the significance between before and after administration, the unpaired t-test was adopted for comparison between groups.

[1] = 0.15 mg/kg iv, 90 min after administration
[2] = 0.15 mg/kg iv, 120 min after administration
[3] = 0.15 mg/kg iv, before administration
[4] = 0.3 mg/kg iv, 5 min after administration
[5] = 0.3 mg/kg iv, 10 min after administration
[6] = 0.3 mg/kg iv, 15 min after administration
[7] = 0.3 mg/kg iv, 20 min after administration
[8] = 0.3 mg/kg iv, 30 min after administration

CC(C)(O)[C@@H]1CC[C@](C)([C@H]2[C@@H](O)C[C@@]3(C)C4C[C@H](OC5OC(CO)C(O)C(O)C5O)C5C(C)(C)[C@@H](O)CC[C@@]56C[C@@]46CC[C@]23C)O1 (stereo partly drawn) [CMG, Cycloastragenol-6-O-β-D-glucoside]
CO change vs before administration [1]: (−0.15 ± 0.24) L/min | CR [1]: 1.36 ± 0.37 mmHg/ml/min/100 g | CR change vs before administration [1]: (0.00 ± 0.24) mmHg/ml/min/100 g | LVEDP [1]: 1.4 ± 2.4 mmHg | LVEDP change vs before administration [1]: (−0.40 ± 0.43) mmHg | LVP [1]: 101 ± 18 mmHg | LVP change vs before administration [1]: (−3.5 ± 7.6) mmHg | LVW [1]: 0.96 ± 0.24 kg · m | LVW change vs before administration [1]: (−0.16 ± 0.34) kg · m | TPR [1]: 5576 ± 2153 dyn · s/cm^5 | TPR change vs before administration [1]: (426 ± 770) dyn · s/cm^5 | dp/dt [1]: 1121 ± 412 mmHg/s | dp/dt change vs before administration [1]: (−28 ± 90) mmHg/s | −dp/dt [1]: −857 ± 243 mmHg/s | −dp/dt change vs before administration [1]: (31 ± 128) mmHg/s | CF [2]: 56.5 ± 16.6 ml/min/100 g | CF change vs before administration [2]: (−1.2 ± 13.7) ml/min/100 g | CI [2]: 1.79 ± 0.37 L/min/m^2 | CI change vs before administration [2]: (−0.29 ± 0.45) L/min/m^2 | CO [2]: 1.03 ± 0.19 L/min | CO change vs before administration [2]: (−0.17 ± 0.28) L/min | CR [2]: 1.35 ± 0.44 mmHg/ml/min/100 g | CR change vs before administration [2]: (−0.01 ± 0.25) mmHg/ml/min/100 g | LVEDP [2]: 1.6 ± 2.3 mmHg | LVEDP change vs before administration [2]: (−0.15 ± 0.44) mmHg | LVP [2]: 103 ± 22 mmHg | LVP change vs before administration [2]: (−1.8 ± 8.1) mmHg | LVW [2]: 0.99 ± 0.36 kg · m | LVW change vs before administration [2]: (−0.13 ± 0.37) kg · m | TPR [2]: 5734 ± 1774 dyn · s/cm^5 | TPR change vs before administration [2]: (584 ± 1030) dyn · s/cm^5 | dp/dt [2]: 1138 ± 387 mmHg/s | dp/dt change vs before administration [2]: (−11 ± 92) mmHg/s | −dp/dt [2]: −897 ± 263 mmHg/s | −dp/dt change vs before administration [2]: (−9 ± 176) mmHg/s | CF [3]: 57.7 ± 24.1 ml/min/100 g | CI [3]: 2.08 ± 0.63 L/min/m^2 | CO [3]: 1.21 ± 0.38 L/min | CR [3]: 1.35 ± 0.44 mmHg/ml/min/100 g | LVEDP [3]: 1.8 ± 2.2 mmHg | LVP [3]: 105 ± 22 mmHg | LVW [3]: 1.12 ± 0.42 kg · m | TPR [3]: 5150 ± 2321 dyn · s/cm^5 | dp/dt [3]: 1150 ± 391 mmHg/s | −dp/dt [3]: −888 ± 310 mmHg/s | ±LVdp/dtmax (0.15 mg/kg iv, within 120 min): no significant change | LVEDP maximum decrease (0.3 mg/kg iv): 1.5±0.8 mmHg | CF [4]: 51.7 ± 20.7 ml/min/100 g | CF change vs before administration [4]: (1.5 ± 5.3) ml/min/100 g | CI [4]: 2.09 ± 0.86 L/min/m^2 | CI change vs before administration [4]: (0.11 ± 0.16) L/min/m^2 | CO [4]: 1.16 ± 0.39 L/min | CO change vs before administration [4]: (0.06 ± 0.09) L/min | CR [4]: 1.57 ± 0.74 mmHg/ml/min/100 g | CR change vs before administration [4]: (0.04 ± 0.17) mmHg/ml/min/100 g | LVEDP [4]: 1.3 ± 2.5 mmHg | LVEDP change vs before administration [4]: (−0.39 ± 0.38) mmHg | LVP [4]: 107 ± 21 mmHg | LVP change vs before administration [4]: (4.1 ± 4.9) mmHg | LVW [4]: 1.12 ± 0.49 kg · m | LVW change vs before administration [4]: (0.10 ± 0.07) kg · m | TPR [4]: 5248 ± 1878 dyn · s/cm^5 | TPR change vs before administration [4]: (−52 ± 829) dyn · s/cm^5 | dp/dt [4]: 1308 ± 448 mmHg/s | dp/dt change vs before administration [4]: (47 ± 34) mmHg/s | −dp/dt [4]: −958 ± 313 mmHg/s | −dp/dt change vs before administration [4]: (−37 ± 44) mmHg/s | CF [5]: 53.5 ± 21.1 ml/min/100 g | CF change vs before administration [5]: (3.3 ± 3.2) ml/min/100 g | CI [5]: 1.96 ± 0.85 L/min/m^2 | CI change vs before administration [5]: (−0.03 ± 0.23) L/min/m^2 | CO [5]: 1.09 ± 0.39 L/min | CO change vs before administration [5]: (−0.01 ± 0.14) L/min | CR [5]: 1.50 ± 0.71 mmHg/ml/min/100 g | CR change vs before administration [5]: (−0.03 ± 0.12) mmHg/ml/min/100 g | LVEDP [5]: 1 ± 2.4 mmHg | LVEDP change vs before administration [5]: (−0.75 ± 0.34) mmHg | LVP [5]: 106 ± 22 mmHg | LVP change vs before administration [5]: (2.3 ± 6.9) mmHg | LVW [5]: 1.02 ± 0.44 kg · m | LVW change vs before administration [5]: (0.00 ± 0.15) kg · m | TPR [5]: 5683 ± 2354 dyn · s/cm^5 | TPR change vs before administration [5]: (384 ± 1293) dyn · s/cm^5 | dp/dt [5]: 1358 ± 444 mmHg/s | dp/dt change vs before administration [5]: (97 ± 68) mmHg/s | −dp/dt [5]: −925 ± 299 mmHg/s | −dp/dt change vs before administration [5]: (−4 ± 80) mmHg/s | CF [6]: 51.3 ± 21.1 ml/min/100 g | CF change vs before administration [6]: (1.1 ± 4.2) ml/min/100 g | CI [6]: 1.98 ± 0.84 L/min/m^2 | CI change vs before administration [6]: (−0.01 ± 0.28) L/min/m^2 | CO [6]: 1.10 ± 0.38 L/min | CO change vs before administration [6]: (0.00 ± 0.17) L/min | CR [6]: 1.56 ± 0.76 mmHg/ml/min/100 g | CR change vs before administration [6]: (0.02 ± 0.15) mmHg/ml/min/100 g | LVEDP [6]: 0.7 ± 2.6 mmHg | LVEDP change vs before administration [6]: (−1.06 ± 0.54) mmHg | LVP [6]: 106 ± 20 mmHg | LVP change vs before administration [6]: (2.3 ± 5.4) mmHg | LVW [6]: 1.02 ± 0.44 kg · m | LVW change vs before administration [6]: (0.00 ± 0.16) kg · m | TPR [6]: 5535 ± 2356 dyn · s/cm^5 | TPR change vs before administration [6]: (236 ± 1386) dyn · s/cm^5 | dp/dt [6]: 1367 ± 470 mmHg/s | dp/dt change vs before administration [6]: (106 ± 54) mmHg/s | −dp/dt [6]: −947 ± 308 mmHg/s | −dp/dt change vs before administration [6]: (−25 ± 74) mmHg/s | CF [7]: 51.4 ± 19.2 ml/min/100 g | CF change vs before administration [7]: (1.2 ± 4.0) ml/min/100 g | CI [7]: 1.94 ± 0.81 L/min/m^2 | CI change vs before administration [7]: (−0.04 ± 0.11) L/min/m^2 | CO [7]: 1.08 ± 0.36 L/min | CO change vs before administration [7]: (−0.02 ± 0.06) L/min | CR [7]: 1.51 ± 0.68 mmHg/ml/min/100 g | CR change vs before administration [7]: (−0.02 ± 0.14) mmHg/ml/min/100 g | LVEDP [7]: 0.6 ± 2.5 mmHg | LVEDP change vs before administration [7]: (−1.16 ± 0.89) mmHg | LVP [7]: 104 ± 23 mmHg | LVP change vs before administration [7]: (1.2 ± 6.9) mmHg | LVW [7]: 1.02 ± 0.47 kg · m | LVW change vs before administration [7]: (0.00 ± 0.05) kg · m | TPR [7]: 5513 ± 1980 dyn · s/cm^5 | TPR change vs before administration [7]: (214 ± 869) dyn · s/cm^5 | dp/dt [7]: 1348 ± 487 mmHg/s | dp/dt change vs before administration [7]: (87 ± 77) mmHg/s | −dp/dt [7]: −937 ± 289 mmHg/s | −dp/dt change vs before administration [7]: (−16 ± 91) mmHg/s | CF [8]: 51.4 ± 24.5 ml/min/100 g | CF change vs before administration [8]: (1.2 ± 6.2) ml/min/100 g | CI [8]: 1.92 ± 0.78 L/min/m^2 | CI change vs before administration [8]: (−0.06 ± 0.30) L/min/m^2 | CO [8]: 1.07 ± 0.36 L/min | CO change vs before administration [8]: (−0.03 ± 0.18) L/min | CR [8]: 1.51 ± 0.74 mmHg/ml/min/100 g | CR change vs before administration [8]: (−0.02 ± 0.09) mmHg/ml/min/100 g | LVEDP [8]: 0.6 ± 2.4 mmHg | LVEDP change vs before administration [8]: (−1.11 ± 0.87) mmHg | LVP [8]: 102 ± 23 mmHg | LVP change vs before administration [8]: (−1.3 ± 4.7) mmHg | LVW [8]: 0.97 ± 0.46 kg · m | LVW change vs before administration [8]: (−0.05 ± 0.13) kg · m | TPR [8]: 5318 ± 2153 dyn · s/cm^5 | TPR change vs before administration [8]: (19 ± 1444) dyn · s/cm^5 | dp/dt [8]: 1304 ± 459 mmHg/s | dp/dt change vs before administration [8]: (43 ± 100) mmHg/s | −dp/dt [8]: −885 ± 293 mmHg/s
